Source: ChEMBL document CHEMBL1133500, “Active site binding modes of HIV-1 integrase inhibitors” (J Med Chem, 2000)

How the values were obtained:
[1] = Inhibitory activity against ASV (avian sarcoma virus) integrase; Range 40-350 uM
[2] = biological target: T1, Human immunodeficiency virus type 1 integrase (Human immunodeficiency virus 1, UniProt Q7ZJM1)
[3] = biological target: T1, Human immunodeficiency virus type 1 integrase; remark: listed apart in the source

T1 sequence (Q7ZJM1 whole entry): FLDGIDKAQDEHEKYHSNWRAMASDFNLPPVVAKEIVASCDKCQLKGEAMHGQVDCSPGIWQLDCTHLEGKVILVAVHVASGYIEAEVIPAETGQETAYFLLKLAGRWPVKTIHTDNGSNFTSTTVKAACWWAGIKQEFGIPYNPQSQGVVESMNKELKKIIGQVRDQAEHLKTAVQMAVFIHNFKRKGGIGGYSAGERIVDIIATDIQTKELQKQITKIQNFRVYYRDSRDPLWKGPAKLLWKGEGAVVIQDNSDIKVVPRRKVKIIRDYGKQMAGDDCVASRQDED

Row | Kd [2] | IC50 [3] | Structure (SMILES) | IC50 [1]
1 |  |  | CC(=O)Nc1cc(S(=O)(=O)O)cc2cc(S(=O)(=O)O)cc(O)c12 | < 350 µM
2 | < 15 µM | < 17 µM | O=C1c2ccc(O)c(O)c2C(=O)c2c(O)ccc(O)c21 [QUINALIZARIN] | 
